Holding throughout (assay type): functional, cell-based
Experiment [1] relates to A549. The experiment is described as follows: Cytotoxicity against human A549 cells by SRB staining assay. Background: In SRB staining, fixed cells bind dye roughly in proportion to their protein.
Experiment [2] has as its system XF498. The experiment can be described thus: Cytotoxicity against human XF498 cells by SRB staining assay.
Experiment [3] concerns HCT-15. The experiment can be described thus: Cytotoxicity against human HCT-15 cells by SRB staining assay.
Experiment [4] concerns SK-OV-3. The experiment is described as follows: Cytotoxicity against human SK-OV-3 cells by SRB staining assay.
Experiment [5] deals with P388. The experiment is described as follows: Antiproliferative activity against mouse P388 cells.
In experiment [6] the test system is SK-MEL-2. The experiment is described as follows: Cytotoxicity against human SK-MEL-2 cells by SRB staining assay.
Experiment [7] deals with A2058. The experiment is described as follows: Cytotoxicity against human A2058 cells incubated for 48 hrs by MTT assay. To be noted: A2058, 48 h. (In general: Tetrazolium dyes change colour on reduction, which living cells bring about.)
Experiment [8] concerns MDA-MB-231. The experiment can be described thus: Cytotoxicity against human MDA-MB-231 cells incubated for 48 hrs by MTT assay. The following applies: MDA-MB-231, 48 h.
In experiment [9] the test system is HT-29. The experiment can be described thus: Cytotoxicity against human HT-29 cells incubated for 48 hrs by MTT assay. The following applies: HT-29, 48 h.
In experiment [10] the test system is CCRF-CEM. The experiment can be described thus: Cytotoxicity against human CEM cells incubated for 72 hrs by MTT assay.
The test system of experiment [11] is HL-60. The experiment is described as follows: Cytotoxicity against human HL-60 cells incubated for 72 hrs by MTT assay. The following applies: HL-60, 72 h.
In experiment [12] the test system is Jurkat. The experiment is described as follows: Cytotoxicity against human Jurkat cells incubated for 72 hrs by MTT assay.
Experiment [13] relates to LNCaP. The experiment can be described thus: Cytotoxicity against human LNCAP cells incubated for 48 hrs clonogenic survival assay. To be noted: 48 h.
Experiment [14] relates to MCF7. The experiment is described as follows: Cytotoxicity against human MCF7 cells.
The test system of experiment [15] is NCI-H446. The experiment can be described thus: Cytotoxicity against human NCI-H446 cells.
In experiment [16] the test system is HeLa. The experiment can be described thus: Cytotoxicity against human HeLa cells.
For experiment [17], the system named is MCF7. The experiment is described as follows: Antiproliferative activity against human MCF7 cells by tetrazolium-based semiautomated colorimetric assay.
Experiment [18] deals with PANC-1. The experiment is described as follows: Cytotoxicity against human Panc-1 cells incubated for 48 hrs by CCK8 assay. To be noted: PANC-1, 48 h.
Experiment [19] relates to MDA-MB-435. The experiment is described as follows: Antiproliferative activity against human MDA-MB-435 cells incubated for 48 hrs by [3H]-thymidine incorporation assay.
For experiment [20], the system named is SW480. The experiment is described as follows: Antiproliferative activity against human SW480 cells incubated for 72 hrs by MTT assay. To be noted: SW480, 72 h.
The test system of experiment [21] is MCF7. The experiment can be described thus: Antiproliferative activity against human MCF7 cells incubated for 48 hrs by [3H]-thymidine incorporation assay. Background: Uptake of a labelled nucleoside into DNA is a usual measure of proliferation.

Take `CC(=O)O[C@@H]1C[C@H](O)[C@@]23COC(O)[C@]1(C)[C@@H]2C[C@@H](O)[C@]1(C)[C@@H]3C(=O)C(O)[C@@]2(C)[C@H](c3ccoc3)C[C@H]3O[C@@]312` (stereo not given in full): the IC50 – broadly, the midpoint of a concentration-inhibition curve – in experiment [1] turned out to be 75 nM; in [2] it was 38 nM; in [3], 150 nM; in experiment [4], 470 nM; in experiment [5], 3.8 nM; in [6] it was 19 nM.

For the molecule `C=C1CC[C@@H]2[C@](C)(COC(=O)CN(C)c3ccc([N+](=O)[O-])c4nonc34)[C@H](O)CC[C@@]2(C)[C@@H]1C/C=C1/C(=O)OC[C@H]1OC(C)=O`, the IC50 in experiment [7] amounted to 4.5 µM; in [8], 9.8 µM; in experiment [9], 12 µM.

In the case of `CC(O)CC(=O)O[C@@]1(C)CO[C@@]2(C1)OC(=O)[C@H]([C@@H]1CC[C@]34C[C@]13C=C[C@@H]1[C@@]3(C)CC=C5C[C@@H](Cc6ccccc6)OC[C@]5(C)[C@@H]3C[C@@H](O)[C@]14C)[C@H]2O` (stereo not given in full), the IC50 in [10] stood at 3.1 µM; in [11], 5.6 µM; in [12], 1800 nM.

In experiment [13], `C/C=C(/C)C(=O)O[C@H]1C(C)=C2[C@H]([C@@H]1OC(=O)CCCCCCC)[C@@](C)(OC(C)=O)C[C@H](OC(=O)CCCCCCCCCCCNC(=O)[C@@H](N)CC(C)C)[C@@]1(O)[C@H]2OC(=O)[C@@]1(C)O` yielded an IC50 of 14 nM.

Regarding `C[C@@]12[C@H](O)C=C[C@]3(C)C(=O)O[C@H](C=C4COC(=O)C[C@H]41)[C@H]23`, the half-inhibitory concentration (IC50) in experiment [14] was found to be 11 µM; in [15], 16 µM; in experiment [16] it was 10 µM.

The molecule `C[C@H]1[C@@H](CCC(=O)NCC[C@H]2O[C@@H]3O[C@]4(C)CC[C@H]5[C@H](C)CC[C@@H]([C@H]2C)[C@@]35OO4)O[C@@H]2O[C@@]3(C)CC[C@H]4[C@H](C)CC[C@@H]1[C@@]24OO3` came in with an IC50 in [17] of 8 nM.

On to `CC(=O)OC1C(=O)[C@@H]2[C@@]34COC(O)[C@@](C)([C@H](OC(C)=O)C[C@@H]3O)[C@@H]4C[C@@H](O)[C@@]2(C)[C@@]23O[C@@H]2C[C@@H](c2ccoc2)[C@]13C` (stereo not given in full), for which the IC50 in experiment [1] amounted to 17 nM; in [2], 12 nM; in experiment [3] it was 70 nM; in [4], 35 nM; in experiment [6], 1.2 nM.

Regarding `CC(C)[C@]12O[C@H]1[C@@H]1O[C@]13[C@]1(O[C@H]1C[C@H]1C4=C(CC[C@@]13C)C(=O)OC4)[C@@H]2OCOP(=O)(O)O` [MINNELIDE], the IC50 in [18] was 200 nM.

Take `CC(=O)O[C@@]1(C)COC2(C1)OC(=O)[C@H]([C@@H]1CC[C@]34C[C@]13C=C[C@@H]1[C@@]3(C)CC=C5C[C@@H](Cc6ccccc6)OC[C@]5(C)[C@@H]3C[C@@H](O)[C@]14C)[C@H]2O` (stereo not given in full): the IC50 is 24 µM in [10], 30 µM in experiment [11] and 2700 nM in [12].

On to `CC(C)[C@]12O[C@H]1[C@@H]1O[C@]13[C@]1(O[C@H]1C[C@H]1C4=C(CC[C@@]13C)C(=O)OC4)[C@@H]2O` [TRIPTOLIDE], for which it took 200 nM to reach half-maximal inhibition in experiment [18] (IC50).

Consider `CC1(C)OC(=O)C=C[C@]2(C)[C@H]3CC[C@@]4(C)[C@H](c5ccoc5)OC(=O)[C@H]5O[C@]54[C@]3(C)C(=O)C[C@@H]12` [OBACUNONE], for which the results for the IC50 in experiment [19], in experiment [20] and in experiment [21] were 6.8 µM, 56 µM and 20 nM, respectively.

(Values after ChEMBL document CHEMBL4706632, “Development of Potential Antitumor Agents from the Scaffolds of Plant-Derived Terpenoid Lactones” (J Med Chem, 2020).)
